pIC50: −log10 of the molar value.
Each compound was assayed against T1, ATM (Homo sapiens, UniProt Q13315) (assay: ATM inhibition test (phosphorylation of Chk2 generated by ionizing radiation, AlphaScreen SureFire)). Settings: phosphorylated Chk2 in NCI-H460 cells, ionizing radiation 8Gy, 1 hour after test compound treatment; read-out: ATM inhibitory activity.
T1 construct: detecting phosphorylation of Chk2 in a human non-small cell lung cancer cell line NCI-H460 (ATCC company); host or cells: NCI-H460 human non-small cell lung cancer cells
T1 sequence (Q13315 whole entry): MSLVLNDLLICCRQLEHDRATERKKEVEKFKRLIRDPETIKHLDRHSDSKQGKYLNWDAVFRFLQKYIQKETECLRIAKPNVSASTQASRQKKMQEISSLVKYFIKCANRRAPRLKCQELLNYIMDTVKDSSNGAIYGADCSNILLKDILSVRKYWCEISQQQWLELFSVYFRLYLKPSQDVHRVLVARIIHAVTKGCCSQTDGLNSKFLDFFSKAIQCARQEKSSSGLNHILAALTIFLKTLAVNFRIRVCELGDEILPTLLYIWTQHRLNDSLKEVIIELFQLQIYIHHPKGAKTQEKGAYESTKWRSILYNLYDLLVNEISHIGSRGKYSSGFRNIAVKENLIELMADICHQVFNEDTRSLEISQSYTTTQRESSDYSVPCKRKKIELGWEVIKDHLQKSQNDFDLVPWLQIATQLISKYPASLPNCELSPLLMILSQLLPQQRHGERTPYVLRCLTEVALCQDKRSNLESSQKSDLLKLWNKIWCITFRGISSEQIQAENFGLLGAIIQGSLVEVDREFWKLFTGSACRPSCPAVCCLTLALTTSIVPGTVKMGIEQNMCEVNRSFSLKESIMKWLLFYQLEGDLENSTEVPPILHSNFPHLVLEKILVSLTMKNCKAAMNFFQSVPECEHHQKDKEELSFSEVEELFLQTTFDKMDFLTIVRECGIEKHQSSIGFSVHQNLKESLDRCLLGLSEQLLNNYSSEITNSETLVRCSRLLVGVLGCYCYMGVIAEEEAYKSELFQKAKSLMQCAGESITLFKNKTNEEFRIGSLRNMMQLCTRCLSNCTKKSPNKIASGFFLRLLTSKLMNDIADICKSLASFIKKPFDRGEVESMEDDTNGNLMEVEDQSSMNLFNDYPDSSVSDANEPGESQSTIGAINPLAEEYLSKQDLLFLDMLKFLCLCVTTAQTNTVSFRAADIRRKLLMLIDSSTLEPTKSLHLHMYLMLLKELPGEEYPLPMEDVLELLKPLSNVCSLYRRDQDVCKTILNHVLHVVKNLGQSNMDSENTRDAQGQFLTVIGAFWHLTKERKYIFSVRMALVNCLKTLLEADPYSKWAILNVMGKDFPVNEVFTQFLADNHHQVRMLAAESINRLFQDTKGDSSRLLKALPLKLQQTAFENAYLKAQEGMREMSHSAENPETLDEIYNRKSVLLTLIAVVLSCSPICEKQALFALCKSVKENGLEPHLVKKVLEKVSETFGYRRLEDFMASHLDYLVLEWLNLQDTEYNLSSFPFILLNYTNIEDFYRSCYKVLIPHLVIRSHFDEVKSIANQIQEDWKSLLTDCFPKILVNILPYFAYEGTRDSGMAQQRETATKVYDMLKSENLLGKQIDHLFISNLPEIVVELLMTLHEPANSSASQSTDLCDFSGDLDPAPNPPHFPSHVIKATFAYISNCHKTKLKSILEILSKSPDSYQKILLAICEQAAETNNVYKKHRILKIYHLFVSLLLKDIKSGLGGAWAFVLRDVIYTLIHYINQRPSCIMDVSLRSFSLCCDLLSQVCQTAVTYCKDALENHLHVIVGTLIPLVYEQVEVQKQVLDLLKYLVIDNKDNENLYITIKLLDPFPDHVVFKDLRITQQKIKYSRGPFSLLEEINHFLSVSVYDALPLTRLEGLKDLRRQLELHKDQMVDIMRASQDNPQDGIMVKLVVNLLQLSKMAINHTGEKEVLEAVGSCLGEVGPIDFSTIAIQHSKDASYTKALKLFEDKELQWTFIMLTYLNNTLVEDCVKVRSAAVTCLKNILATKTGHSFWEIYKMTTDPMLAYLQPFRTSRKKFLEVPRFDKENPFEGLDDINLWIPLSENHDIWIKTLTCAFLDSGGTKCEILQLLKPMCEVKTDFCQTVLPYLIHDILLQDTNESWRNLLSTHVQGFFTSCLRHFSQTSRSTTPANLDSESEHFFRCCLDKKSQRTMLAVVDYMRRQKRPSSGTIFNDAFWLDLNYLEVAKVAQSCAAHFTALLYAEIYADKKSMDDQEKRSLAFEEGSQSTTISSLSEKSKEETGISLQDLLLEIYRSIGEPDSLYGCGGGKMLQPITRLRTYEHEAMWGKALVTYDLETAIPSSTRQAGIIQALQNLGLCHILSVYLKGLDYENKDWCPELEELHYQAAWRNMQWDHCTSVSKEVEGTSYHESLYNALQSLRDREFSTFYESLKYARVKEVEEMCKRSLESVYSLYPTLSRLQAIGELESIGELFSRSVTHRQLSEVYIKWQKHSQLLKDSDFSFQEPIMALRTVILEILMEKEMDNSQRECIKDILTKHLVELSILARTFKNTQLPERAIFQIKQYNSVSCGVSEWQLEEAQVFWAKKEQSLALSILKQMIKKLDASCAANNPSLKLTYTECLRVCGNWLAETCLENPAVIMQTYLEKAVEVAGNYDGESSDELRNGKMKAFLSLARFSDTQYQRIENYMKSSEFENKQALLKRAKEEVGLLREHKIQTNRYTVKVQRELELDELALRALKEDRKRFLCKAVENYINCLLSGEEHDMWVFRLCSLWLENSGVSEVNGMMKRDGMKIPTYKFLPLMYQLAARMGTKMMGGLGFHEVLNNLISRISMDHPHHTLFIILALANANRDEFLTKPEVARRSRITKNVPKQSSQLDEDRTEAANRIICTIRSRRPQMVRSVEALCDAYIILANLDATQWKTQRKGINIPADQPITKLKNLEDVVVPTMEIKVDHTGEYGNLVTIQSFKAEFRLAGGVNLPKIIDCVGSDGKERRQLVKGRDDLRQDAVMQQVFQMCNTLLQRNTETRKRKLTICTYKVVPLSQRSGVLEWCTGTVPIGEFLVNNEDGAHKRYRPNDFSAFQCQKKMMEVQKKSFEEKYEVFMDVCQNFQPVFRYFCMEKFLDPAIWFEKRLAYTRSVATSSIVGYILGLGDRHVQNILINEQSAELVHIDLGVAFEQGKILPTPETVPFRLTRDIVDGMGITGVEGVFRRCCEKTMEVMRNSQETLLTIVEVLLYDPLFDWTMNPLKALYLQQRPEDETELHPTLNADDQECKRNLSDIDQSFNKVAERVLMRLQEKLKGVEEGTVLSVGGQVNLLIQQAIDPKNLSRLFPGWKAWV
Format: cell-based
Procedure, shortened: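 NCI-H460 cells treated with compound for 1 hour, then irradiated with 8Gy and incubated 1 hour at 37° C. Phospho-Chk2 measured by AlphaScreen SureFire. Inhibition ratio calculated relative to untreated irradiated and non-irradiated wells.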
A pIC50 of 6.30 to 7.00 was found for O=c1cc(N2CCOCC2)cc(-c2cccc3c2Oc2ccc(NC4CCN(Cc5cccnc5)CC4)cc2C3)[nH]1 [Example 2-9-2, 4-Morpholino-6-(7-((1-(pyridin-3-ylmethyl)piperidin-4-yl)amino)-9H-xanthen-4-yl)pyridin-2(1H)-one] in this work. A pIC50 of 5.70 to 6.30 was found for Cn1c(CNc2ccc3c(c2)Cc2cccc(-c4cc(N5CCOCC5)cc(=O)[nH]4)c2O3)cccc1=O [Example 2-2-47, 1-Methyl-6-(((5-(4-morpholino-6-oxo-1,6-dihydropyridin-2-yl)-9H-xanthen-2-yl)amino)methyl) pyridin-2(1H)-one] in this work. A pIC50 of 5.70 to 6.30 was found for COCC(=O)N1CCC(Nc2ccc3c(c2)Sc2cccc(-c4cc(N5CCOCC5)cc(=O)[nH]4)c2S3)CC1 [Example 1-28, 6-(7-((1-(2-methoxyacetyl)piperidin-4-yl)amino)thianthren-1-yl)-4-morpholinopyridin-2(1H)-one] in this work. A pIC50 of 6.30 to 7.00 was found for O=c1cc(N2CCOCC2)cc(-c2cccc3c2Oc2ccc(NC4CCN(Cc5cccc(C6CC6)n5)CC4)cc2C3)[nH]1 [Example 2-28-31, 6-(7-((1-((6-Cyclopropylpyridin-2-yl)methyl)piperidin-4-yl)amino)-9H-xanthen-4-yl)-4-morpholino pyridin-2(1H)-one] in this work. A pIC50 of over 7.00 was found for Cc1ccc(C(Nc2ccc3c(c2)Sc2cccc(-c4cc(N5CCOCC5)cc(=O)[nH]4)c2S3)C2CCN(CC(F)F)CC2)nc1 (centres unmarked) [Example 1-58, 6-(7-(((1-(2,2-difluoroethyl)piperidin-4-yl)(5-methylpyridin-2-yl)methyl)amino)thianthren-1-yl)-4-morpholinopyridin-2(1H)-one] in this work. A pIC50 of over 7.00 was found for Cc1cnc(C(CCN(C)C)Nc2ccc3c(c2)Cc2cccc(-c4cc(N5CCOCC5)cc(=O)[nH]4)c2O3)cn1 (single isomer, unassigned) [Example 12-4, 6-(7-((3-(Dimethylamino)-1-(5-methylpyrazin-2-yl)propyl)amino)-9H-xanthen-4-yl)-4-morpholinopyridin-2(1H)-one] in this work. A pIC50 of 6.30 to 7.00 was found for CC(C)(C)OC(=O)N1CCC(Nc2ccc3c(c2)Sc2cccc(-c4cc(N5CCOCC5)cc(=O)[nH]4)c2O3)CC1 [Example 4-8-3, tent-Butyl 4-((6-(4-morpholino-6-oxo-1,6-dihydropyridin-2-yl)phenoxathiin-2-yl)amino) piperidin-l-carboxylate] in this work. A pIC50 of over 7.00 was found for Cc1ccc(C(CCN(C)CCN(C)C)Nc2ccc3c(c2)Sc2cccc(-c4cc(N5CCOCC5)cc(=O)[nH]4)c2S3)nc1 (single isomer, unassigned) [Example 10-5-1, 6-(7-((3-((2-(Dimethylamino)ethyl)(methyl)amino)-1-(5-methylpyridin-2-yl)propyl)amino)thianthren-1-yl)-4-morpholinopyridin-2(1H)-one] in this work. A pIC50 of 6.30 to 7.00 was found for Cc1nccnc1CNc1ccc2c(c1)Cc1cccc(-c3cc(N4CCOCC4)cc(=O)[nH]3)c1O2 [Example 2-14-75, 6-(7-(((3-Methylpyrazin-2-yl)methyl)amino)-9H-xanthen-4-yl)-4-morpholino pyridin-2(1H)-one] in this work. A pIC50 of 6.30 to 7.00 was found for O=c1cc(N2CCOCC2)cc(-c2cccc3c2Sc2ccc(N[C@H](COCc4ccccc4)CN4CCOCC4)cc2S3)[nH]1 [Example 1-59-2, (S)-6-(7-((1-(benzyloxy)-3-morpholinopropan-2-yl)amino)thianthren-1-yl)-4-morpholinopyridin-2(1H)-one] in this work. A pIC50 of 6.30 to 7.00 was found for COc1ncc(CN2CCC(Nc3ccc4c(c3)Cc3cccc(-c5cc(N6CCOCC6)cc(=O)[nH]5)c3O4)CC2)cn1 [Example 2-28-14, 6-(7-((1-((2-Methoxypyrimidin-5-yl)methyl)piperidin-4-yl)amino)-9H-xanthen-4-yl)-4-morpholino pyridin-2(1H)-one] in this work. A pIC50 of over 7.00 was found for Cc1ccc(C(Nc2ccc3c(c2)Sc2cccc(-c4cc(N5CCOCC5)cc(=O)[nH]4)c2S3)C2CNCCO2)nc1 (single isomer, unassigned) [Example 1-55-2, 6-(7-(((5-methylpyridin-2-yl)(morpholin-2-yl)methyl)amino)thianthren-1-yl)-4-morpholinopyridin-2(1H)-one] in this work. A pIC50 of 6.30 to 7.00 was found for O=c1cc(N2CCOCC2)cc(-c2cccc3c2Sc2ccc(NC4CCCN(C5CCOC5)C4)cc2S3)[nH]1 (centres unmarked) [Example 1-24-8, 4-Morpholino-6-(7-((1-(tetrahydrofuran-3-yl)piperidin-3-yl)amino)thianthren-1-yl)pyridin-2 (1H)-one] in this work. A pIC50 of 6.30 to 7.00 was found for CCNCC(Nc1ccc2c(c1)Sc1cccc(-c3cc(N4CCOCC4)cc(=O)[nH]3)c1S2)c1cccc(C)n1 (centres unmarked) [Example 1-34-1, 6-(7-((2-(ethylamino)-1-(6-methylpyridin-2-yl)ethyl)amino)thianthren-1-yl)-4-morpholinopyridin-2(1H)-one] in this work. A pIC50 of 5.70 to 6.30 was found for Cc1ccsc1CNc1ccc2c(c1)Sc1cccc(-c3cc(N4CCOCC4)cc(=O)[nH]3)c1S2 [Example 1-12-59, 6-(7-(((3-Methylthiophen-2-yl)methyl)amino)thianthren-1-yl)-4-morpholino pyridin-2 (1H)-one] in this work. A pIC50 of 5.70 to 6.30 was found for COC[C@@H](Nc1ccc2c(c1)Sc1cccc(-c3cc(N4CCOCC4)cc(=O)[nH]3)c1S2)C(=O)O [Example 1-49, (R)-3-methoxy-2-((6-(4-morpholino-6-oxo-1,6-dihydropyridin-2-yl)thianthren-2-yl)amino)propionic acid] in this work. A pIC50 of 6.30 to 7.00 was found for Cc1ccc(C(C[C@@H]2CCCN2C)Nc2ccc3c(c2)Sc2cccc(-c4cc(N5CCOCC5)cc(=O)[nH]4)c2S3)nc1 (single isomer, unassigned) [Example 12-2] in this work. A pIC50 of 6.30 to 7.00 was found for COc1cc(OC)nc(CN2CCC(Nc3ccc4c(c3)Cc3cccc(-c5cc(N6CCOCC6)cc(=O)[nH]5)c3O4)CC2)n1 [Example 2-28-20, 6-(7-((1-((4,6-Dimethoxypyrimidin-2-yl)methyl)piperidin-4-yl)amino)-9H-xanthen-4-yl)-4-morpholino pyridin-2(1H)-one] in this work. A pIC50 of 6.30 to 7.00 was found for COc1ccnc(C(C)Nc2ccc3c(c2)Cc2cccc(-c4cc(N5CCOCC5)cc(=O)[nH]4)c2O3)n1 (centres unmarked) [Example 2-14-56, 6-(7-((1-(4-Methoxypyrimidin-2-yl)ethyl)amino)-9H-xanthen-4-yl)-4-morpholino pyridin-2(1H)-one] in this work. A pIC50 of 5.70 to 6.30 was found for CN(c1ccc2c(c1)Sc1cccc(-c3cc(N4CCOCC4)cc(=O)[nH]3)c1S2)C1CCCNC1 (centres unmarked) [Example 1-30, 6-(7-(methyl(piperidin-3-yl)amino)thianthren-1-yl)-4-morpholinopyridin-2(1H)-one] in this work. A pIC50 of over 7.00 was found for O=c1cc(N2CCOCC2)cc(-c2cccc3c2Oc2ccc(NCc4cnc5c(c4)OCCO5)cc2C3)[nH]1 [Example 2-2-29, 6-(7-(((2,3-Dihydro-[1,4]dioxino[2,3-b]pyridin-7-yl)methyl)amino)-9H-xanthen-4-yl)-4-morpholino pyridin-2 (1H)-one] in this work. A pIC50 of 6.30 to 7.00 was found for CN[C@@H](Cc1ccccc1)C(=O)Nc1ccc2c(c1)Sc1cccc(-c3cc(N4CCOCC4)cc(=O)[nH]3)c1S2 [Example 1-4, (S)-2-(methylamino)-N-(6-(4-morpholino-6-oxo-1,6-dihydropyridin-2-yl)thianthren-2-yl)-3-phenyl propanamide] in this work. A pIC50 of 6.30 to 7.00 was found for COc1cncc(CNc2ccc3c(c2)Cc2cc(C)cc(-c4cc(N5CCOCC5)cc(=O)[nH]4)c2O3)c1 [Example 2-49-2, 6-(7-(((5-Methoxypyridin-3-yl)methyl)amino)-2-methyl-9H-xanthen-4-yl)-4-morpholinopyridin-2(1H)-one] in this work. A pIC50 of over 7.00 was found for Cc1ccc(C(Nc2ccc3c(c2)Sc2cccc(-c4cc(N5CCOCC5)cc(=O)[nH]4)c2S3)[C@@H]2CN(C)CCO2)nc1 (single isomer, unassigned) [Example 1-56-11] in this work. A pIC50 of over 7.00 was found for O=c1cc(N2CCOCC2)cc(-c2cccc3c2Sc2ccc(NC4CCNCC4)cc2S3)[nH]1 [Example 1-24-15, 4-Morpholino-6-(7-(piperidin-4-ylamino)thianthren-1-yl)pyridin-2(1H)-one] in this work. A pIC50 of 5.70 to 6.30 was found for COc1ccncc1CNc1ccc2c(c1)Cc1cccc(-c3cc(N4CCOCC4)cc(=O)[nH]3)c1O2 [Example 2-2-34, 6-(7-(((4-Methoxypyridin-3-yl)methyl)amino)-9H-xanthen-4-yl)-4-morpholino pyridin-2(1H)-one] in this work. A pIC50 of 5.70 to 6.30 was found for COc1ncc(CNc2ccc3c(c2)Cc2ccnc(-c4cc(N5CCOCC5)cc(=O)[nH]4)c2O3)cn1 [Example 2-42-1, 6-(7-(((2-Methoxypyrimidin-5-yl)methyl)amino)-5H-chromeno[2,3-c]pyridin-1-yl)-4-morpholinopyridin-2(1H)-one] in this work. A pIC50 of 6.30 to 7.00 was found for CC(CCNc1ccc2c(c1)Sc1cccc(-c3cc(N4CCOCC4)cc(=O)[nH]3)c1S2)N1CCOCC1 (centres unmarked) [Example 8-2, 4-Morpholino-6-(7-((3-morpholinobutyl)amino)thianthren-1-yl)pyridin-2(1H)-one] in this work. A pIC50 of 6.30 to 7.00 was found for CN(C)c1ncc(CNc2ccc3c(c2)Sc2cccc(-c4cc(N5CCOCC5)cc(=O)[nH]4)c2O3)cn1 [Example 4-4-5, 6-(8-(((2-(Dimethylamino)pyrimidin-5-yl)methyl)amino)phenoxathiin-4-yl)-4-morpholino pyridin-2 (1H)-one] in this work. A pIC50 of 5.70 to 6.30 was found for Cc1cccc(C(CO)Nc2ccc3c(c2)Cc2cccc(-c4cc(N5CCOCC5)cc(=O)[nH]4)c2O3)n1 (single isomer, unassigned) [Example 2-14-92-1, 6-(7-((2-hydroxy-1-(6-methylpyridin-2-yl)ethyl)amino)-9H-xanthen-4-yl)-4-morpholinopyridin-2(1H)-one] in this work. A pIC50 of 6.30 to 7.00 was found for CC(CNc1ccc2c(c1)Sc1cccc(-c3cc(N4CCOCC4)cc(=O)[nH]3)c1S2)N1CCOCC1 (single isomer, unassigned) [Example 1-9-2-3, 4-morpholino-6-(7-((2-morpholinopropyl)amino)thianthren-1-yl)pyridin-2(1H)-one] in this work. A pIC50 of 5.70 to 6.30 was found for Cc1ccc(CNc2ccc3c(c2)Cc2cccc(-c4cc(N5CCOCC5)cc(=O)[nH]4)c2O3)s1 [Example 2-14-40, 6-(7-(((5-Methylthiophen-2-yl)methyl)amino)-9H-xanthen-4-yl)-4-morpholino pyridin-2(1H)-one] in this work.
